Where “and” joins values, the source holds several entries; their conditions need not be identical. Identical values can stand only once.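 Following 48 hours of exposure in 96-well plates, responses at five concentrations were used to interpolate endpoints linearly. Here, GI50 denotes the concentration required for 50% inhibition of growth. TGI: total growth inhibition.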
How the values were obtained:
Test in all cases: inhibition of tumour cell growth, NCI panel, 48 h
HCC-2998 colon = tested on: HCC-2998 colon
HCT-15 colon = tested on: HCT-15 colon
M14 melanoma = tested on: M14 melanoma
MDA-MB-435 = tested on: MDA-MB-435
NCI-H460 lung = tested on: NCI-H460 lung
OVCAR-3 ovarian = tested on: OVCAR-3 ovarian
RXF 393 renal = tested on: RXF 393 renal
SK-MEL-5 melanoma = tested on: SK-MEL-5 melanoma
UACC-257 melanoma = tested on: UACC-257 melanoma
UACC-62 melanoma = tested on: UACC-62 melanoma

SMILES	GI50 (HCC-2998 colon)	TGI (HCC-2998 colon)	GI50 (HCT-15 colon)	TGI (HCT-15 colon)	GI50 (M14 melanoma)	TGI (M14 melanoma)	GI50 (MDA-MB-435)	TGI (MDA-MB-435)	GI50 (NCI-H460 lung)	TGI (NCI-H460 lung)	GI50 (OVCAR-3 ovarian)	TGI (OVCAR-3 ovarian)	GI50 (RXF 393 renal)	TGI (RXF 393 renal)	GI50 (SK-MEL-5 melanoma)	TGI (SK-MEL-5 melanoma)	GI50 (UACC-257 melanoma)	TGI (UACC-257 melanoma)	GI50 (UACC-62 melanoma)	TGI (UACC-62 melanoma)
O=C(Nc1ccc(-n2cc(-c3ccncc3)c(-c3ccc(Cl)c(O)c3)n2)cc1)c1cc(C(F)(F)F)cc(C(F)(F)F)c1	> 100 µM	> 100 µM	3.65 µM	> 100 µM	6.34 µM	89.2 µM	4.11 µM	80.5 µM	3.82 µM	14 µM	3.44 µM	12.2 µM	1.32 µM	3.1 µM	1.55 µM	3.63 µM	8.95 µM	> 100 µM	14.4 µM	> 100 µM
CC(=O)C1(C(=O)C(=[N+]=[N-])S(=O)(=O)c2ccccc2)CC1	–	> 100 µM	–	> 100 µM	–	> 100 µM	–	> 100 µM	–	> 100 µM	–	> 100 µM	–	> 100 µM	–	> 100 µM	–	> 100 µM	–	> 100 µM
O=C1Nc2ccc(-c3cccnc3)cc2/C1=C/c1cc(Br)c(O)c(Br)c1	8.58 µM	> 25 µM	6.8 µM	> 25 µM	4.45 µM	> 21.9 µM	4.6 µM	> 21.7 µM	6.97 µM	> 25 µM	5.05 µM	12.8 µM	6.08 µM	> 19.9 µM	3.95 µM	7.78 µM	4.07 µM	9.36 µM	3.54 µM	9.87 µM
COc1ccc([C@@]23Oc4cc(OC)cc(OC)c4[C@]2(O)[C@H](O)[C@H](C(=O)N(C)C)[C@H]3c2ccccc2)cc1	–	0.0615 µM and 0.224 µM	0.015 µM	–	–	0.014 µM	–	0.0434 µM and 0.0188 µM and 0.15 µM	–	–	0.0164 µM	–	0.0178 µM	0.0823 µM and 0.0262 µM and 0.0785 µM	0.0227 µM	0.0144 µM and 0.139 µM	0.0309 µM	–	0.0243 µM	–
Cc1cc(OC2OC(CO)C(O)C(O)C2O)ccc1O (centres undefined)	–	> 100 µM	–	> 100 µM	–	> 100 µM	–	> 100 µM	–	> 100 µM	–	> 100 µM	–	> 100 µM	–	> 100 µM	–	> 100 µM	–	> 100 µM
C/C(=C/CCC(C)[C@@H]1CC[C@]2(C)C3=C(CC[C@@]12C)[C@@]1(C)CCC(=O)C(C)(C)[C@@H]1CC3)C(=O)O (some centres undefined)	1.1 µM	2.44 µM	0.974 µM	3 µM	1.1 µM	2.64 µM	1.25 µM	2.74 µM	1.28 µM	4.02 µM	1.41 µM	2.79 µM	1.51 µM	3.08 µM	1.07 µM	2.44 µM	1.56 µM	3.06 µM	0.469 µM	1.76 µM
O=C(CCCCN1CCN(CCCCC(=O)Nc2ccccc2C#C/C=C\C#Cc2ccccc2C(F)(F)F)CC1)Nc1ccccc1C#C/C=C\C#Cc1ccccc1C(F)(F)F	9.14 µM	17.5 µM	10.5 µM	23.8 µM	11.7 µM	25.9 µM	11.7 µM	22 µM	11.2 µM	25.5 µM	10.6 µM	21.8 µM	9.81 µM	23.5 µM	9.26 µM	16.9 µM	10.8 µM	22.5 µM	11 µM	22.8 µM
O=[N+]([O-])/C=C/c1ccc2ccccc2c1	–	0.678 µM	–	–	–	> 23.7 µM	–	4.58 µM	–	> 23.5 µM	–	> 100 µM	–	5.72 µM	–	13.3 µM	–	6.63 µM	–	32.8 µM
NC(=O)c1nc(-c2c(F)cccc2Cl)oc1Nc1ccc(C(=O)N2CCOCC2)cc1	14.8 µM	> 100 µM	2.2 µM	> 100 µM	13.7 µM	> 100 µM	2.03 µM	> 100 µM	0.805 µM	> 100 µM	10.3 µM	> 100 µM	0.964 µM	5.54 µM	10.5 µM	35.8 µM	11.9 µM	41.1 µM	–	–
CCOC(=O)[C@@H](C)C[C@H](Cc1ccccc1)NC(=O)c1csc([C@@H](C[C@H](C(C)C)N(C)C(=O)CNC(=O)[C@H]2CCCCN2C)OC(C)=O)n1	0.795 µM	> 14.3 µM	1.49 µM	> 14.3 µM	0.804 µM	7.31 µM	0.228 µM	0.801 µM	0.612 µM	> 6.66 µM	0.334 µM	1.33 µM	0.502 µM	4.62 µM	0.444 µM	> 7.3 µM	–	–	0.514 µM	> 14.3 µM
CCN(CC)CCCC(Nc1c2ccc(Cl)cc2nc2ccc(OC)cc12)c1ccc(Cl)cc1 (centres undefined)	1.47 µM	3.01 µM	0.404 µM	1.59 µM	0.199 µM	0.411 µM	0.576 µM	1.93 µM	1.33 µM	2.88 µM	1.22 µM	2.75 µM	1.03 µM	2.31 µM	1.25 µM	2.54 µM	1.68 µM	3.22 µM	–	–
